Reference: BigSolDB 2.1

O=c1nc[nH]c2[nH]ncc12
Details | solubility (mole fraction)
in 1,4-dioxane, 283.15 K | 2.91e-05
in 1,4-dioxane, 288.15 K | 3.71e-05
in 1,4-dioxane, 293.15 K | 4.64e-05
in 1,4-dioxane, 298.15 K | 5.74e-05
in 1,4-dioxane, 303.15 K | 7.03e-05
in 1,4-dioxane, 308.15 K | 8.43e-05
in 1,4-dioxane, 313.15 K | 0.000102
in 1,4-dioxane, 318.15 K | 0.000123
in 1,4-dioxane, 323.15 K | 0.000148
in 1,4-dioxane, 328.15 K | 0.000178
in 1,4-dioxane, 333.15 K | 0.000204
in 2-butanone, 278.15 K | 0.000783
in 2-butanone, 283.15 K | 0.000954
in 2-butanone, 288.15 K | 0.00115
in 2-butanone, 293.15 K | 0.00138
in 2-butanone, 298.15 K | 0.00165
in 2-butanone, 303.15 K | 0.00196
in 2-butanone, 308.15 K | 0.00231
in 2-butanone, 313.15 K | 0.00271
in 2-butanone, 318.15 K | 0.00316
in 2-butanone, 323.15 K | 0.00367
in 2-butanone, 328.15 K | 0.00425
in 2-butanone, 333.15 K | 0.00491
in DMF, 278.15 K | 0.00223
in DMF, 283.15 K | 0.00266
in DMF, 288.15 K | 0.00316
in DMF, 293.15 K | 0.00373
in DMF, 298.15 K | 0.00437
in DMF, 303.15 K | 0.00509
in DMF, 308.15 K | 0.00591
in DMF, 313.15 K | 0.00683
in DMF, 318.15 K | 0.00785
in DMF, 323.15 K | 0.00898
in DMF, 328.15 K | 0.01
in DMF, 333.15 K | 0.0121
in NMP, 278.15 K | 0.0151
in NMP, 283.15 K | 0.017
in NMP, 288.15 K | 0.02
in NMP, 293.15 K | 0.022
in NMP, 298.15 K | 0.0251
in NMP, 303.15 K | 0.0281
in NMP, 308.15 K | 0.032
in NMP, 313.15 K | 0.035
in NMP, 318.15 K | 0.0391
in NMP, 323.15 K | 0.0431
in NMP, 328.15 K | 0.0481
in NMP, 333.15 K | 0.0531
in acetone, 278.15 K | 0.000653
in acetone, 283.15 K | 0.000797
in acetone, 288.15 K | 0.000966
in acetone, 293.15 K | 0.00116
in acetone, 298.15 K | 0.00139
in acetone, 303.15 K | 0.00166
in acetone, 308.15 K | 0.00196
in acetone, 313.15 K | 0.00231
in acetone, 318.15 K | 0.0027
in acetone, 323.15 K | 0.00314
in acetone, 328.15 K | 0.00365
in acetone, 333.15 K | 0.00421
in acetonitrile, 278.15 K | 9.6e-05
in acetonitrile, 283.15 K | 0.000117
in acetonitrile, 288.15 K | 0.000141
in acetonitrile, 293.15 K | 0.00017
in acetonitrile, 298.15 K | 0.000204
in acetonitrile, 303.15 K | 0.000239
in acetonitrile, 308.15 K | 0.000286
in acetonitrile, 313.15 K | 0.000331
in acetonitrile, 318.15 K | 0.000384
in acetonitrile, 323.15 K | 0.000448
in acetonitrile, 328.15 K | 0.000522
in acetonitrile, 333.15 K | 0.00059
in cyclohexane, 283.15 K | 4.74e-07
in cyclohexane, 288.15 K | 6.38e-07
in cyclohexane, 293.15 K | 7.68e-07
in cyclohexane, 298.15 K | 1.02e-06
in cyclohexane, 303.15 K | 1.24e-06
in cyclohexane, 308.15 K | 1.61e-06
in cyclohexane, 313.15 K | 1.97e-06
in cyclohexane, 318.15 K | 2.48e-06
in cyclohexane, 323.15 K | 3.05e-06
in cyclohexane, 328.15 K | 3.77e-06
in cyclohexane, 333.15 K | 4.37e-06
in ethanol, 278.15 K | 2.46e-05
in ethanol, 283.15 K | 3.28e-05
in ethanol, 288.15 K | 4.27e-05
in ethanol, 293.15 K | 5.5e-05
in ethanol, 298.15 K | 6.99e-05
in ethanol, 303.15 K | 8.97e-05
in ethanol, 308.15 K | 0.000109
in ethanol, 313.15 K | 0.000139
in ethanol, 318.15 K | 0.000172
in ethanol, 323.15 K | 0.000211
in ethanol, 328.15 K | 0.000258
in ethanol, 333.15 K | 0.00031
in isopropanol, 278.15 K | 3.64e-05
in isopropanol, 283.15 K | 4.68e-05
in isopropanol, 288.15 K | 5.84e-05
in isopropanol, 293.15 K | 7.35e-05
in isopropanol, 298.15 K | 9.2e-05
in isopropanol, 303.15 K | 0.000112
in isopropanol, 308.15 K | 0.000138
in isopropanol, 313.15 K | 0.000171
in isopropanol, 318.15 K | 0.000204
in isopropanol, 323.15 K | 0.000245
in isopropanol, 328.15 K | 0.000296
in isopropanol, 333.15 K | 0.000346
in methanol, 278.15 K | 2.05e-05
in methanol, 283.15 K | 2.7e-05
in methanol, 288.15 K | 3.61e-05
in methanol, 293.15 K | 4.65e-05
in methanol, 298.15 K | 5.97e-05
in methanol, 303.15 K | 7.6e-05
in methanol, 308.15 K | 9.62e-05
in methanol, 313.15 K | 0.00012
in methanol, 318.15 K | 0.000152
in methanol, 323.15 K | 0.000189
in methanol, 328.15 K | 0.000235
in methanol, 333.15 K | 0.000283
in n-butanol, 278.15 K | 6.63e-05
in n-butanol, 283.15 K | 8.13e-05
in n-butanol, 288.15 K | 0.0001
in n-butanol, 293.15 K | 0.000124
in n-butanol, 298.15 K | 0.000151
in n-butanol, 303.15 K | 0.000184
in n-butanol, 308.15 K | 0.000219
in n-butanol, 313.15 K | 0.00026
in n-butanol, 318.15 K | 0.000312
in n-butanol, 323.15 K | 0.000366
in n-butanol, 328.15 K | 0.000429
in n-butanol, 333.15 K | 0.000496
in n-heptanol, 278.15 K | 0.000127
in n-heptanol, 283.15 K | 0.000149
in n-heptanol, 288.15 K | 0.000175
in n-heptanol, 293.15 K | 0.000205
in n-heptanol, 298.15 K | 0.000239
in n-heptanol, 303.15 K | 0.000276
in n-heptanol, 308.15 K | 0.000318
in n-heptanol, 313.15 K | 0.000365
in n-heptanol, 318.15 K | 0.000418
in n-heptanol, 323.15 K | 0.000473
in n-heptanol, 328.15 K | 0.000544
in n-heptanol, 333.15 K | 0.000614
in n-hexanol, 278.15 K | 8.05e-05
in n-hexanol, 283.15 K | 9.84e-05
in n-hexanol, 288.15 K | 0.000119
in n-hexanol, 293.15 K | 0.000145
in n-hexanol, 298.15 K | 0.000177
in n-hexanol, 303.15 K | 0.000214
in n-hexanol, 308.15 K | 0.000259
in n-hexanol, 313.15 K | 0.000302
in n-hexanol, 318.15 K | 0.00036
in n-hexanol, 323.15 K | 0.00042
in n-hexanol, 328.15 K | 0.000499
in n-hexanol, 333.15 K | 0.000566
in n-propanol, 278.15 K | 4.85e-05
in n-propanol, 283.15 K | 6.16e-05
in n-propanol, 288.15 K | 7.66e-05
in n-propanol, 293.15 K | 9.52e-05
in n-propanol, 298.15 K | 0.000114
in n-propanol, 303.15 K | 0.00014
in n-propanol, 308.15 K | 0.000164
in n-propanol, 313.15 K | 0.000201
in n-propanol, 318.15 K | 0.000247
in n-propanol, 323.15 K | 0.000293
in n-propanol, 328.15 K | 0.000349
in n-propanol, 333.15 K | 0.000403
in water, 278.15 K | 8.71e-06
in water, 283.15 K | 1.18e-05
in water, 288.15 K | 1.57e-05
in water, 293.15 K | 2.12e-05
in water, 298.15 K | 2.94e-05
in water, 303.15 K | 3.83e-05
in water, 308.15 K | 5.01e-05
in water, 313.15 K | 6.44e-05
in water, 318.15 K | 8.32e-05
in water, 323.15 K | 0.000107
in water, 328.15 K | 0.000134
in water, 333.15 K | 0.000167
